Data published in patent US4937346A, “Phenyl-azacykloalkanes” (Carlsson; Per Arvid Emil, priority 1979, dated 1990).

Assays:
[1] = system: postsynaptic dopaminergic receptor; assay: Antagonism of apomorphine-induced locomotor stimulation; assay type: in vivo, rat
Protocol: 3. Evidence for postsynaptic dopminergic receptor antagonist activity of (-)-3-PPP.
The locomotor stimulating action of the dopamine receptor aqonist apomorphine is antagonized by (-)-3-PPP. […] Thus the postsynaptic receptor antagonist activity requires a larger dose than the presynaptic receptor agonist activity, which is evident after doses down to 0.25 mg/kg.
Further, (-)-3-PPP and racemic 3-PPP have been compared regarding antagonism of apomorphine-induced locomotor stimulation. Either form of 3-PPP was injected subcutaneously in a dose of 8 mg/kg 20 min and apomorphine in a dose of 1 mg/kg subcutaneously 5 min before placing the rats in the Motron for 30 min. Shown are the counts per 30 min., means± s.e.m. and number of experiments (n).

[2] = system: postsynaptic dopamine receptor; assay: Gross behavioral observations for postsynaptic dopamine receptor activity; assay type: in vivo, rat; details: gross behavioural observations, any dose tested
From the text: Rats (150-300 g) pretreated with reserpine were given the compounds under evaluation. Gross behavioral observations (changes in motility, stereotypies etc.) were made in order to evaluate possible postsynaptic dopamine receptor activity. Subsequent administration of NSD 1015, decapitation, brain dissection (corpora striate and the limbic fore-brain), homogenization, centrifugation, ion-exchange chromatography and spectrofluorimetric measurements (all as described in detail by Wikstrom et al., in J. Med. Chem. 21, 864-867, 1978, and references cited therein), gave the actual Dopa levels. Several doses (n=4-6) were tested in order to obtain dose-response curves for each compound and brain area. The dose of a compound producing a half-maximal decrease in the Dopa level in the rat brain part was then estimated.

DA autoreceptors = assay: Antagonism of γ-butyrolactone (GBL)-induced increase in rat brain DA synthesis rate; assay type: in vivo
Protocol: 3. Antagonism ofγ-butyrolactone (GBL)-induced increase in rat brain DA synthesis rate.
The administration of GBL in anesthetic doses inhibits nerve impulse flow in central DA neurons, thus resulting in a loss of the impulse-mediated feedback control of tyrosine hydroxylase activity and in a subsequent increase in transmitter synthesis rate (which is determined as described under 2 above). Since the GBL inhibition precludes neuronal feedback actions, antagonistic effects exerted by DA-receptor agonists upon the GBL-induced increase in synthesis are in all probability to be ascribed to their stimulating the DA autoreceptors present in the terminal area of the DA neurons.
Rats (150-300 g), were given compound 4 subcutaneously at several doses (n=7) followed by GBL (750 mg/kg i.p., 5 min. later) and NSD 1015 (100 mg/kg i.p., 10 min. later). By a subsequent procedure according to 2 above the Dopa levels (representing the DA-synthesis rates) were determined. […] The maximal reversal of the GBL-induced increase in DA synthesis rate was approximately 160% in the limbic system and 110% in corpus striatum.

[3] = system: postsynaptic DA receptors; assay: Emetic activity in dogs; assay type: in vivo; details: at least at 1 mg/kg i.m.
From the text: It was in fact lacking any measurable temperature effects.

In the case of `Br.CCCN1CCCC(c2cccc(O)c2)C1` (racemic) [Compound 4, N-n-propyl-3-(3-hydroxyphenyl)piperidine hydrobromide], the “antagonism of apomorphine locomotor stimulation” value ([1]; 8 mg/kg s.c.) is reported as “did not”, the “counts per 30 min., with apomorphine” value ([1]; 8 mg/kg s.c. + apomorphine 1 mg/kg s.c., means ± s.e.m., n=5) is reported as 443 ± 26 counts per 30 min and the “postsynaptic DA-receptor activation” value [2] is reported as “selectivity for the autoreceptors”. For the same compound, the “% Reversal of GBL-induced increase in dopamine synthesis rate” value (from here on “% Reversal of GBL-induced increase”) (DA autoreceptors; 0.5 mg/kg s.c., corpus striatum) was 0%, the “% Reversal of GBL-induced increase” value (DA autoreceptors; 0.5 mg/kg s.c., limbic system) was 58% and the “% Reversal of GBL-induced increase” value (DA autoreceptors; 1.0 mg/kg s.c., corpus striatum) was 17%. For the same compound, the “% Reversal of GBL-induced increase” value (DA autoreceptors; 1.0 mg/kg s.c., limbic system) was 75%, the “% Reversal of GBL-induced increase” value (DA autoreceptors; 2.0 mg/kg s.c., corpus striatum) was 34% and the “% Reversal of GBL-induced increase” value (DA autoreceptors; 2.0 mg/kg s.c., limbic system) was 92%. The “% Reversal of GBL-induced increase” value (DA autoreceptors; 4.0 mg/kg s.c., corpus striatum) was 51%, the “% Reversal of GBL-induced increase” value (DA autoreceptors; 4.0 mg/kg s.c., limbic system) was 109% and the “% Reversal of GBL-induced increase” value (DA autoreceptors; 8.0 mg/kg s.c., corpus striatum) was 68%. For the same compound, the “% Reversal of GBL-induced increase” value (DA autoreceptors; 8.0 mg/kg s.c., limbic system) was 126%, the “% Reversal of GBL-induced increase” value (DA autoreceptors; 16.0 mg/kg s.c., corpus striatum) was 86% and the “% Reversal of GBL-induced increase” value (DA autoreceptors; 16.0 mg/kg s.c., limbic system) was 142%. The Dopa concentration (DA autoreceptors; 32 mg/kg s.c. + GBL, limbic system, n=5) was 191 ± 16 ng per g tissue, the Dopa concentration (DA autoreceptors; 32 mg/kg s.c. + GBL, striatum, n=5) was 1063 ± 74 ng per g tissue and the “maximal reversal of the GBL-induced increase in DA synthesis rate” value (DA autoreceptors; corpus striatum) was about 110%. The “blockade by haloperidol of the antagonism of GBL-induced increase” value (DA autoreceptors; haloperidol) was “the antagonism could be blocked by haloperidol”, the Dopa concentration (DA autoreceptors; haloperidol 1 mg/kg i.p. + 32 mg/kg compound 4, limbic system, n=3) was 387 ± 32 ng per g tissue and the Dopa concentration (DA autoreceptors; haloperidol 1 mg/kg i.p. + 32 mg/kg compound 4, striatum, n=3) was 2193 ± 53 ng per g tissue. The “maximal reversal of the GBL-induced increase in DA synthesis rate” value (DA autoreceptors; limbic system) was “approximately 160%”, the “dose dependence of antagonism of GBL-induced increase in DA synthesis rate” value (DA autoreceptors; s.c., several doses) was “dose-dependently antagonized the GBL-induced increase in DA synthesis rate” and the emetic activity [3] was “devoid of emetic activity in dogs”.
